Results from PMC12730667, “A Scorpion Peptide Exerts Selective Anti-Leukemia Effects Through Disrupting Cell Membranes and Triggering Bax/Bcl-2-Related Apoptosis Pathway” (Biomolecules, 2025).
Where no end group is shown, it is not given here.

Tests used:
K562 cells = assay type: cell-based, human
Method: (§1) All cell lines, including CT26.WT, LLC, MV-4-11, HCT-116, ID8, Jurkat, L1210, OVCAR-8, YAC-1, MDA-MB-231, MEL, Mia PaCa-2, B16-F10, HepG2, A549 Hela, 4T1, Panco2, K562, RAJI, A375, HL-60, H1975, HaCat, HUVEC, and HDF, were obtained from the National Collection of Authenticated Cell Cultures (Shanghai, China) or saved in the lab and cultured in RPMI-1640 or DMEM or IMEM medium supplemented with 10% (v/v) fetal bovine serum (FBS), 100 units/mL penicillin, 100 µg/mL streptomycin, and 0.05% (v/v) L-glutamine serum in a humidified atmosphere of 5% CO2 at 37 °C.
(§2) To determine the effects of Lpep3 on cell cytotoxicity, the Cell Counting Kit-8 (CCK8) assay was performed according to the manufacturer’s protocol. Cells were seeded at 8 × 10^3 cells per well and treated with Lpep3 at different concentrations (100, 50, 25, 12.5, 6.25, 3.125, 1.56, 0.78, 0.39 μM) for 24 h. Subsequently, 10 μL of CCK8 reagent (Abbkine, Wuhan, China) was added to each well and incubated for 1–4 h at 37 °C. The absorbance at 450 nm was measured using a microplate reader (BioTek, Winooski, VT, USA). The half-maximal inhibitory concentration (IC50) was defined as the peptide concentration required to reduce cell viability by 50% relative to the untreated control. IC50 values were calculated using non-linear regression analysis of the dose–response curves in GraphPad Prism (8.0.2). The percentage of cellular viability was calculated using the following equation: Cell Viability %=ODSample−ODBlank/ODControl−ODBlank×100%

MV-4-11 cells = assay type: cell-based, human
Method: as §1, §2

Raji cells = assay type: cell-based, human; settings: Raji, 5, 10 and 20 μM, CCK-8
Method: as §1
as §2, with “Cells were seeded at 8 × 10^3 cells per well and treated with Lpep3 at different concentrations (100, 50, 25, 12.5, 6.25, 3.125, 1.56, 0.78, 0.39 μM) for 24 h.” left out

[1] = Solubility of the synthesized peptide in PBS and DMSO; assay type: physicochemical; settings: peptide excluded from experimental verification
Source text: Based on the anticancer prediction model CNBT-ACPred established by our team previously, there are 276 toxic animal polypeptides whose average prediction score is greater than 0.73. Then, based on the top prediction scores and species diversity, seven candidate peptides were chosen for subsequent experimental validation (Table 2).

[2] = tested on: 24 distinct cancer cell lines; assay type: cell-based; settings: CCK-8, 5, 10 and 20 μM
Method: as §1
as §2, with “Subsequently, 10 μL of CCK8 reagent (Abbkine, Wuhan, China) was added to each well and incubated for 1–4 h at 37 °C.” left out, “The half-maximal inhibitory concentration (IC50) was defined as the peptide concentration required to reduce cell viability by 50% relative to the untreated control.” left out
To comprehensively characterize the anticancer activity of peptides Lpep1–Lpep7, their cytotoxic effects across 24 distinct cancer cell lines were assessed using CCK-8 assays. […]

4T1 cells = assay type: cell-based; settings: 24 h
Method: as §1, §2

B16-F10 cells = assay type: cell-based; settings: 24 h
Method: as §1, §2

CT26.WT cells = assay type: cell-based; settings: 24 h
Method: as §1, §2

H1975 cells = assay type: cell-based; settings: 24 h
Method: as §1, §2

HDF cells = assay type: cell-based; settings: 24 h
Method: as §1, §2

HUVEC cells = assay type: cell-based; settings: 24 h
Method: as §1, §2

HaCaT cells = assay type: cell-based; settings: 24 h
Method: as §1, §2

ID8 cells = assay type: cell-based; settings: 24 h
Method: as §1, §2

LLC cells = assay type: cell-based; settings: 24 h
Method: as §1, §2

Panc02 cells = assay type: cell-based; settings: 24 h
Method: as §1, §2

A375 cells = assay type: cell-based, human; settings: 24 h
Method: as §1, §2

A549 cells = assay type: cell-based, human; settings: 24 h
Method: as §1, §2

HCT116 cells = assay type: cell-based, human; settings: 24 h
Method: as §1, §2

HL-60 cells = assay type: cell-based, human; settings: 24 h
Method: as §1, §2

HeLa cells = assay type: cell-based, human; settings: 24 h
Method: as §1, §2

Hep G2 cells = assay type: cell-based, human; settings: 24 h
Method: as §1, §2

Jurkat cells = assay type: cell-based, human; settings: 24 h
Method: as §1, §2

MDA-MB-231 cells = assay type: cell-based, human; settings: 24 h
Method: as §1, §2

Mia PaCa-2 cells = assay type: cell-based, human; settings: 24 h
Method: as §1, §2

OVCAR-8 cells = assay type: cell-based, human; settings: 24 h
Method: as §1, §2

L1210 cells = settings: 24 h
Method: as §1, §2

MEL cells = settings: 24 h
Method: as §1, §2

YAC-1 cells = settings: 24 h
Method: as §1, §2

Primary PBMC = assay type: cell-based; settings: 24 h
Method: Briefly, fresh anticoagulated whole blood was collected and diluted with 1× PBS buffer at a ratio of 1:1, followed by gentle mixing. Then, an appropriate volume of mononuclear cell separation medium was added to a sterile centrifuge tube, and the diluted blood sample was carefully layered onto the surface of the separation medium (separation medium–diluted whole blood = 1:2) while maintaining a clear interface between the two layers. Then, it was centrifuged at 450× g for 20–30 min at room temperature. After centrifugation, the plasma layer was aspirated and discarded, then the PBMC layer was carefully collected (i.e., the buffy coat) and transferred to a 15 mL centrifuge tube. […] The isolated PBMCs were then ready for subsequent experiments.
To determine the effects of Lpep3 on cell cytotoxicity, the Cell Counting Kit-8 (CCK8) assay was performed according to the manufacturer’s protocol. […] The absorbance at 450 nm was measured using a microplate reader (BioTek, Winooski, VT, USA). […] IC50 values were calculated using non-linear regression analysis of the dose–response curves in GraphPad Prism (8.0.2). The percentage of cellular viability was calculated using the following equation: Cell Viability %=ODSample−ODBlank/ODControl−ODBlank×100%

solid tumor cell lines = experiment: CCK-8 IC50, solid cancer cell lines as a group; assay type: cell-based; settings: range over hepatocellular, pancreatic, breast, cervical, lung, colorectal, ovarian and melanoma cell lines, CCK-8, 24 h; read-out: IC50 values in solid cancers
Method: as §2
Based on the above results, subsequent studies will focus on determining the IC50 of Lpep3 to accurately quantify the intensity of its anticancer activity. […] The ovarian cell was the most sensitive in solid tumor cell lines.

non-cancer cells = assay type: cell-based; settings: 24 h
Method: as §2
The lowest values approached 0.6 μM in MV-4-11. […] Based on this discrepancy, concentrations of 0.5 μM and 1 μM were selected for subsequent experiments.

red blood cells = experiment: Hemolytic activity assay; assay type: cell-based; settings: red blood cells in PBS, 37 °C, 1 h, absorbance 450 nm, 0.1% Triton X-100 as positive control, Figure S2B
Method: A total of 500 μL fresh whole blood was collected and diluted with 5 mL PBS and then centrifuged at 1000 rpm for 5 min to remove the plasma. The pellet was washed again by adding PBS to a final volume of approximately 10 mL, followed by centrifuging at 1000 rpm for 5 min. This washing step was repeated until the supernatant became clear. The resulting red blood cell pellet was then resuspended in 10 mL PBS. For the hemolysis assay, 200 μL suspension was mixed with 200 μL Lpep3 with different concentrations (100, 50, 25, 12.5, 6.25, 3.125, 1.57, 0.78, 0.39 μM). The positive control consisted of 200 μL suspension mixed with 200 μL 0.1% Triton X-100, while the negative control contained 200 μL RBC suspension and 200 μL PBS. All mixtures were incubated at 37 °C for 1 h, followed by centrifugation at 12,000 rpm for 5 min. The supernatant was collected and measured at 450 nm. The hemolysis rate was calculated using the following equation: Hemolysis rate%=ODSample−ODnegative/ODPositive−ODnagative×100%

[3] = In vivo biosafety in tumor-bearing nude mice (body weight, blood, liver/kidney function, H&E); design: species or system mouse; settings: 10 mg/kg i.p. every other day, 6 injections
Source text: Healthy male BALB/c nu/nu nude mice (aged 4–5 weeks) were purchased from Slac & Jingda Laboratory Animal Co., Ltd. (Changsha, China). All animal experiments were strictly approved by the Institutional Animal Care and Use Committee (IACUC) of Hunan Normal University, and the Guidelines for the Care and Use of Laboratory Animals issued by the National Institutes of Health (NIH, Bethesda, MD, USA) were strictly adhered to throughout the experiment. MV-4-11 cells (5 × 10^6 cells resuspended in a 1:1 mixture of Matrigel and PBS) were subcutaneously (s.c.) injected into the right axillary fossa of each mouse. When the tumor volume reached 100–150 mm^3, all mice were randomly divided into two groups (n = 4). Mice in the experimental group were intraperitoneally injected with 50 μL of Lpep3 (10 mg/kg), while those in the control group received an intraperitoneal injection of an equal volume of sterile PBS. The day of the first injection was defined as Day 0. Injections were administered every other day, with a total of 6 administrations. Additionally, the tumor volume and body weight of mice in each group were monitored at regular intervals. After the experiment, major organs were dissected, fixed in 4% paraformaldehyde (PFA), and subjected to histological examination. Major organs were further stained with hematoxylin and eosin (H&E) for pathological analysis.
After euthanasia, whole blood was collected and allowed to stand at 4 °C for 1 h and then centrifuged at 3000× g for 10 min to obtain serum. Serum biochemical and liver/kidney function parameters, including RBC, NEU, HGB, ALT, AST, BUN, and creatinine, were analyzed using an automated chemistry analyzer (TBA-40FR, Tochigi, Japan) according to the manufacturer’s instructions.

Sequence: FVQWFSKFLGRIL [Lpep7, 13-residue candidate peptide, species Rana temporaria]
- cytotoxic activity (K562 cells; K562, 5, 10 and 20 μM, CCK-8): moderate activity
- cytotoxic activity (MV-4-11 cells; MV-4-11, 5, 10 and 20 μM, CCK-8): moderate activity
- cytotoxic activity (Raji cells): moderate activity

Sequence: GLFDIAKKVIGVIGSL [Lpep4, 16-residue candidate peptide, species Ranoidea raniformis]
- solubility in PBS and DMSO [1]: poor solubility

Sequence: FFGSLLSLGSKLLPSVFKLFQRKKE [Lpep3]
- cytotoxic effects across 24 distinct cancer cell lines [2]: potent, broad-spectrum cytotoxic peptide
- IC50 (4T1 cells): 3050 nM
- IC50 (B16-F10 cells): 11800 nM
- IC50 (CT26.WT cells): 2000 nM
- IC50 (H1975 cells): 3040 nM
- IC50 (HDF cells): 4520 nM
- IC50 (HUVEC cells): 6420 nM
- IC50 (HaCaT cells): 5800 nM
- IC50 (ID8 cells): 1990 nM
- IC50 (LLC cells): 2320 nM
- IC50 (Panc02 cells): 2870 nM
- IC50 (A375 cells): 2230 nM
- cell viability (A375 cells; 5 μM): ~0%
- IC50 (A549 cells): 2720 nM
- IC50 (HCT116 cells): 3200 nM
- IC50 (HL-60 cells): 1490 nM
- IC50 (HeLa cells): 2720 nM
- cell viability (HeLa cells; 5 μM): ~0%
- IC50 (Hep G2 cells): 6990 nM
- IC50 (Jurkat cells): 554 nM
- cell viability (Jurkat cells; 5 μM): ~0%
- IC50 (K562 cells; 24 h): 656 nM
- cell viability (K562 cells; 24 h, 5 μM): ~0%
- IC50 (MDA-MB-231 cells): 2320 nM
- cell viability (MDA-MB-231 cells; 5 μM): ~0%
- IC50 (MV-4-11 cells; 24 h): 600 nM
- cell viability (MV-4-11 cells; 24 h, 5 μM): ~0%
- IC50 (Mia PaCa-2 cells): 5400 nM
- IC50 (OVCAR-8 cells): 1300 nM
- cell viability (OVCAR-8 cells; 5 μM): ~0%
- IC50 (L1210 cells): 2050 nM
- IC50 (MEL cells): 563 nM
- IC50 (YAC-1 cells): 728 nM
- IC50 (Primary PBMC): 3810 nM
- IC50 (solid tumor cell lines): 1300 to 11000 nM
- IC50 (non-cancer cells): ~5000 nM
- concentration at which a 50% hemolysis rate was observed (red blood cells): 12.5 µM
- liver and kidney function indices (AST, ALT, UA, CRE) ([3]; n = 4, serum): remained within the normal range
- blood routine indices (RBC, HGB, Neu) ([3]; n = 4, vs PBS): no obvious difference
- body weight ([3]; n = 4, vs PBS): no obvious difference
- H&E staining of liver, spleen and kidney ([3]; vs control group): no obvious damage
